Here are results for 13 compounds from patent publication US20150259331A1, “PROTOZOAN PARASITE GROWTH INHIBITORS” (Northeastern University, priority 2014, published 2015).

The subject of test [1] is T. brucei brucei Lister 427. The experiment in a line: Trypanosome replication assay. The format is cell-based, Trypanosoma brucei brucei. The conditions noted are these: 48 h, 48 h, values ±7%.
In test [2] the test system is T. cruzi. The experiment in a line: T. cruzi growth inhibition. The format is cell-based, Trypanosoma cruzi. The settings on record: for EC50 / inhibition at 10 µM: Trypanosoma cruzi; for inhibition at 10 µM: read-out: T. cruzi % inh at 10 μM.
The subject of test [3] is P. fal. The experiment in a line: P. fal assay of Table 13 (strain not given). The format is cell-based, P. falciparum.
In test [4] the test system is L. major promastigote. The experiment in a line: L. major promastigote assay. The test is classed as cell-based.
Test [5] has as its system HepG2 cells. Kind of test: HepG2 cell toxicity (MTT) assay. The test is classed as cell-based. On the procedure:
Then 2 μL of DMSO (control) or different concentrations of drugs prepared from 200× DMSO stocks were added to the cultures. […] All experiments were repeated thrice in independent studies where each dose was administered in duplicate (total n=6). HepG2 Cell Toxicity Assay. The 384 well MTT cytotoxicity assay is a modification of the MTT method described by Ferrari et al. optimized for 384-well throughput, with modifications described below.
HepG2 Cell Toxicity assay. The 384 well MTT cytotoxicity assay is a modification of the MTT method described by Ferrari et al.^1 ENREF—26_ENREF—26_ENREF—26 optimized for 384 well throughput. […] 4.25 μL of diluted test compound was then added to the 38.3 μL of media in each well providing a 10 fold final dilution of compound. […] After a 48 hour incubation period, 8 μL of a 1.5 mg/ml solution of MTT diluted in complete MEM media was added to each well. All plates were subsequently incubated in the dark for 1 hour at room temperature. After incubation, the media and drugs in each well was removed by shaking plate over sink, the plates are then left to dry in hood for 15 minutes. […] Plates are put on a 3-D rotator for 15-30 minutes. Absorbance was determined in all wells using a Tecan iControl 1.6 Infinite plate reader.

Test [6] relates to L. major amastigote. The experiment in a line: L. major amastigote assay. The format is cell-based.
The test system of test [7] is P. falciparum D6. The experiment in a line: P. falciparum D6 assay. The format is cell-based. The settings on record: strain D6.
In test [8] the test system is P. falciparum W2. Kind of test: P. falciparum W2 assay. The settings on record: strain W2, read-out: P. falciparum W2 (EC50). The test is classed as cell-based.
For test [9], the system named is P. falciparum C235. Kind of test: P. falciparum C235 assay. The test is classed as cell-based. The conditions noted are these: read-out: P. falciparum C235 (EC50).
The mark [10] stands for this setting: Trypanosoma brucei, concentration giving 50% inhibition of growth of T brucei brucei Lister 427 cells, read-out: Tbb EC50.
Setting [11] is: concentration giving 50% inhibition of growth of T brucei brucei Lister 427 cells, read-out: Tbb EC50.
The mark [12] stands for this setting: Homo sapiens, HepG2, 48 h, MTT, 48 hour incubation, read-out: HepG2 IC50.
[13] abbreviates: Plasmodium falciparum, strain C235.
[14] abbreviates: Trypanosoma brucei, read-out: Tbb EC50, concentration giving 50% inhibition of growth of T brucei brucei Lister 427 cells.

Structures can show the parent of a compound that is named as a salt. Where two headings read alike, the source gives them in different places. Marks after values point to notes of the source that are not given here. Some results are limits rather than exact numbers.

Consider `O=S(=O)(c1ccc(-c2ccc3c(Nc4ccc(OCc5ccccc5)c(Cl)c4)ccnc3c2)cc1)N1CCOCC1` [NEU-944, N-(4-(Benzyloxy)-3-chlorophenyl)-7-(4-(morpholinosulfonyl)phenyl)quinolin-4-amine], for which the EC50 in test [1] (setting [10]) stood at 0.24 µM; in [2], 3.5 µM; in [3] (Plasmodium falciparum) it was 0.016 µM.
On to `CN1CCN(S(=O)(=O)c2ccc(-c3ccc4ncc(C#N)c(Nc5ccc(OCc6cccc(F)c6)c(Cl)c5)c4c3)cc2)CC1` [NEU-993], for which the EC50 in [1] (setting [11]) was 1.1 µM; in test [4] it was more than 15 µM; in test [3], 0.082 µM.
Regarding `O=S(=O)(c1ccc(-c2ccc3ncnc(Nc4ccc(OCc5ccc(F)cc5)c(Cl)c4)c3c2)cc1)N1CCOCC1` [Compound 20j, N-(3-Chloro-4-((4-fluorobenzyl)oxy)phenyl)-6-(4-(morpholinosulfonyl)phenyl)quinazolin-4-amine Hydrochloride], the EC50 in test [1] (setting [10]) was 1.34 µM; in [1] (concentration giving 50% inhibition of growth of T brucei brucei Lister 427 cells, listed as NEU-566, Hydrochloride, read-out: Tbb EC50), 1.3 µM; in test [4] (Leishmania major), 1.7 µM; in test [6] (Leishmania major), more than 15 µM; in test [7] (Plasmodium falciparum) it was 0.17 µM; in test [8] (Plasmodium falciparum) it was 0.36 µM. The EC50 in test [9] (setting [13]) is 0.24 µM. For the same compound, in [5] (setting [12]), the IC50 (commonly the concentration at which inhibition is half-maximal) was more than 15 µM. Moreover, the inhibition at 10 µM in test [2] was -1%.
On to `CN1CCN(S(=O)(=O)c2ccc(-c3ccc4ncnc(Nc5ccc(OCc6cccc(F)c6)c(Cl)c5)c4c3)cc2)CC1` [Compound 10p, N-(3-Chloro-4-((3-fluorobenzyl)oxy)phenyl)-6-(4-((4-methylpiperazin-1-yl)sulfonyl)phenyl)quinazolin-4-amine], for which the EC50 is 0.53 µM in test [1] (setting [10]); 2.8 µM in test [4] (Leishmania major); 1.6 µM in test [6] (Leishmania major); 0.027 µM in [7] (Plasmodium falciparum); 0.044 µM in test [8] (Plasmodium falciparum); 0.039 µM in test [9] (setting [13]). Further, in test [5] (setting [12]), the IC50 is more than 15 µM. Also, the inhibition at 10 µM in [2] stood at 60%.
With `O=S(=O)(c1ccc(-c2ccc3ncnc(Nc4ccc(OCc5cccc(F)c5)c(Cl)c4)c3c2)cc1)N1CCCC1` [Compound 10n], the EC50 is 0.35 µM in test [1] (setting [11]); more than 15 µM in [4]; more than 15 µM in test [6]; 0.2 µM in test [7]; 0.8 µM in test [8]; 0.42 µM in [9] (strain C235). In [5] (MTT, 48 hour incubation, read-out: HepG2 IC50), the IC50 is more than 15 µM. Also, the “T. cruzi % inh at 10 μM” value in test [2] (10 μM) is recorded as “(10)* %”.
`CS(=O)(=O)c1cccc(-c2ccc3ncnc(Nc4ccc(OCc5cccc(F)c5)c(Cl)c4)c3c2)c1` [Compound 10u, N-(3-Chloro-4-((3-fluorobenzyl)oxy)phenyl)-6-(3-(methylsulfonyl)phenyl)quinazolin-4-amine]: the EC50 in [1] (setting [14]) was 3.21 µM; in test [1] (read-out: Tbb EC50, concentration giving 50% inhibition of growth of T brucei brucei Lister 427 cells, listed as NEU-633), 3.2 µM; in test [2], 5 µM; in test [4] (Leishmania major) it was 3.5 µM; in test [6] (Leishmania major), 4.7 µM; in test [7] (Plasmodium falciparum) it was 0.52 µM. Moreover, the EC50 came out at 1.3 µM in test [8] (Plasmodium falciparum) and 0.62 µM in test [9] (setting [13]). The IC50 in [5] (setting [12]) is more than 15 µM.
For the compound `O=S(=O)(c1ccc(-c2ccc3ncnc(Nc4ccc(OCc5cccc(Br)c5)c(Cl)c4)c3c2)cc1)N1CCOCC1` [Compound 20f, N-(4-((3-Bromobenzyl)oxy)-3-chlorophenyl)-6-(4-(morpholinosulfonyl)phenyl)quinazolin-4-amine Hydrochloride], the EC50 in test [1] (setting [10]) came to 0.68 µM; in [4] (Leishmania major), 14 µM; in test [6] (Leishmania major), 0.47 µM; in [7] (Plasmodium falciparum) it was 0.2 µM; in test [8] (Plasmodium falciparum) it was 0.44 µM; in test [9] (setting [13]), 0.41 µM. Further, in [5] (setting [12]), the IC50 was more than 15 µM. The inhibition at 10 µM in [2] stood at 7%.
`Cc1ccc(Nc2ncnc3ccc(-c4ccc(S(=O)(=O)N5CCOCC5)cc4)cc23)cc1` [Compound 20b, 6-(4-(Morpholinosulfonyl)phenyl)-N-(p-tolyl)quinazolin-4-amine Hydrochloride]: the EC50 was 1.15 µM in test [1] (setting [10]); 1.2 µM in test [1] (concentration giving 50% inhibition of growth of T brucei brucei Lister 427 cells, listed as NEU-549, Hydrochloride, read-out: Tbb EC50); 0.45 µM in test [4] (Leishmania major); more than 15 µM in test [6] (Leishmania major); 1.7 µM in [7] (Plasmodium falciparum); 6.2 µM in [8] (Plasmodium falciparum). Moreover, the EC50 in test [9] (setting [13]) came to 2.8 µM. Moreover, the IC50 in test [5] (setting [12]) was more than 15 µM. Moreover, the inhibition at 10 µM in test [2] came out at 59%.
`O=S(=O)(c1ccc(-c2ccc3ncnc(Nc4ccc(OCc5ccc(C(F)(F)F)c(F)c5)c(Cl)c4)c3c2)cc1)N1CCOCC1` [Compound 20l, N-(3-Chloro-4-((3-fluoro-4-(trifluoromethyl)benzyl)oxy)-phenyl)-6-(4-(morpholinosulfonyl)phenyl)quinazolin-4-amine Hydrochloride]: the EC50 in [1] (setting [10]) amounted to 0.54 µM; in test [4] (Leishmania major), 14 µM; in test [6] (Leishmania major) it was 2.5 µM; in test [7] (Plasmodium falciparum) it was 0.57 µM; in test [8] (Plasmodium falciparum), 1.11 µM; in test [9] (setting [13]) it was 0.64 µM. In addition, in test [5] (setting [12]), the IC50 is more than 15 µM. In addition, the inhibition at 10 µM in test [2] amounted to 21%.
For the compound `COc1cccc(COc2ccc(Nc3ncnc4ccc(-c5ccc(S(=O)(=O)N6CCOCC6)cc5)cc34)cc2Cl)c1` [Compound 20k, N-(3-Chloro-4-((3-methoxybenzyl)oxy)phenyl)-6-(4-(morpholinosulfonyl)phenyl)quinazolin-4-amine Hydrochloride], the EC50 in [1] (setting [10]) worked out at 1.43 µM; in test [1] (concentration giving 50% inhibition of growth of T brucei brucei Lister 427 cells, listed as NEU-567, Hydrochloride, read-out: Tbb EC50), 1.4 µM; in test [4] (Leishmania major), 15 µM; in [6] (Leishmania major), 15 µM; in test [7] (Plasmodium falciparum) it was 0.23 µM; in test [8] (Plasmodium falciparum) it was 0.69 µM. Besides, the EC50 in test [9] (setting [13]) was 0.35 µM. Also, in [5] (setting [12]), the IC50 was more than 15 µM. For the same compound, in test [2], the inhibition at 10 µM came to 5%.
As for `O=C(c1cccc(-c2ccc3ncnc(Nc4ccc(OCc5cccc(F)c5)c(Cl)c4)c3c2)c1)N1CCCCC1` [Compound 23k, (3-(4-((3-Chloro-4-((3-fluorobenzyl)oxy)phenyl)amino)-quinazolin-6-yl)phenyl)(piperidin-1-yl)methanone], the EC50 in test [1] (setting [14]) is 0.14 µM; in test [2], more than 50 µM; in [4] (Leishmania major), 3.5 µM; in test [6] (Leishmania major), 3.5 µM; in test [7] (Plasmodium falciparum), 0.52 µM; in [8] (Plasmodium falciparum), 0.96 µM. In test [9] (setting [13]), the EC50 came to 0.57 µM. Besides, in test [5] (setting [12]), the IC50 was more than 6 µM.
On to `O=S(=O)(c1ccc(-c2ccc3ncnc(Nc4ccc(OCc5cccc(F)c5)cc4)c3c2)cc1)N1CCOCC1` [Compound 20n, N-(4-((3-Fluorobenzyl)oxy)phenyl)-6-(4-(morpholinosulfonyl)phenyl)quinazolin-4-amine], for which the EC50 in test [1] (setting [10]) came out at 0.65 µM; in [4] (Leishmania major) it was 0.48 µM; in test [6] (Leishmania major), 0.47 µM; in test [7] (Plasmodium falciparum) it was 0.44 µM; in [8] (Plasmodium falciparum) it was 2 µM; in [9] (setting [13]), 0.85 µM. Further, the IC50 in [5] (setting [12]) was more than 15 µM. Further, the inhibition at 10 µM in test [2] was found to be 10%.
Turning to `CN(C)S(=O)(=O)c1ccccc1-c1ccc2ncnc(Nc3ccc(OCc4cccc(F)c4)c(Cl)c3)c2c1` [Compound 10v, 2-(4-((3-Chloro-4-((3-fluorobenzyl)oxy)phenyl)amino)-quinazolin-6-yl)-N,N-dimethylbenzenesulfonamide], the EC50 in test [1] (setting [10]) was 1.04 µM; in [1] (concentration giving 50% inhibition of growth of T brucei brucei Lister 427 cells, listed as NEU-619, read-out: Tbb EC50), 1 µM; in test [2] it was 1.5 µM; in test [4] (Leishmania major), 2.8 µM; in [6] (Leishmania major), more than 15 µM; in [7] (Plasmodium falciparum), 0.82 µM. Also, the EC50 is 1.8 µM in test [8] (Plasmodium falciparum) and 1.1 µM in test [9] (Plasmodium falciparum). In addition, the IC50 in test [5] (Homo sapiens, HepG2, 48 h, read-out: HepG2 IC50, MTT, 48 hour incubation) was more than 15 µM.
